16 compounds from patent US12516056B2, “Compounds for inhibition of janus kinase 1” (MANKIND PHARMA LTD., priority 2019, dated 2026) can be followed below.

For assay [1], the target named is T1, Recombinant JAK2 (Homo sapiens, UniProt O60674).
T1 construct: purchased Carna Biosciences
Put plainly: JAK biochemical assay (LANCE Ultra TR-FRET), JAK2. The following applies: recombinant JAK2, TR-FRET; read-out: Biochemical Assay (μM) JAK2. Summed up:
(§1)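 Kinase reactions ran in buffer of 50 mM HEPES pH 7.5 with 1 mM EGTA, 10 mM MgCl2, 2 mM DTT and 0.01% Tween-20, using recombinant enzyme. Phosphorylated ULight substrate was detected by TR-FRET, and compound effect expressed as % inhibition against vehicle.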

For assay [2], the system named is STAT3 phosphorylation by IL-6 in TF-1 cells. Put plainly: JAK cellular assay: STAT3 phosphorylation by IL-6 in TF-1 cells (HTRF). The following applies: IL-6 30 ng/ml, pSTAT3 HTRF, read-out: Cell Based Assay (μM) TF-1/IL-6/pSTAT3. Format: cell-based. Here is the method: TF-1 cells were starved overnight in OptiMEM medium with 0.5% charcoal stripped fetal bovine serum, 0.1 mM nonessential amino acids (NEAA), 1 mM sodium pyruvate and without phenol red in CO2 incubator maintained at 37° c. Next day, cells were resuspended in RPMI without phenol red and dispensed into a 96 well plate at a final cell density of 1,20,000 cells per well. Compounds were diluted in DMSO and added to cells and incubated for 30 minutes in CO2 incubator maintained at 37° c. Final DMSO concentration in cell based assay was 0.2%. Human recombinant cytokines, IL-6 (30 ng/ml) and GMCSF (5 ng/ml) were added to the plate containing cells along with compound and incubated for 20 minutes with gentle tapping at every 5 minutes once. Compound mediated effects on STAT3 and STAT5 phosphorylation was measured in the lysates prepared by using CISBIO pSTAT3 and pSTAT5 detection kits by HTRF method. Background signal obtained from cells which were not activated with cytokines, was subtracted from vehicle controls and compound treated wells.

Assay [3] addresses T2, Recombinant TYK2 (Homo sapiens, UniProt P29597).
T2 construct: purchased Carna Biosciences
As to the kind of experiment: JAK biochemical assay (LANCE Ultra TR-FRET), TYK2. The following applies: recombinant TYK2, TR-FRET; read-out: Biochemical Assay (μM) TYK2. In short, it runs like this:
as §1

Assay [4] has as its target T3, Recombinant JAK3 (Homo sapiens, UniProt P52333).
T3 construct: purchased Carna Biosciences
T3 sequence (P52333 1-1124): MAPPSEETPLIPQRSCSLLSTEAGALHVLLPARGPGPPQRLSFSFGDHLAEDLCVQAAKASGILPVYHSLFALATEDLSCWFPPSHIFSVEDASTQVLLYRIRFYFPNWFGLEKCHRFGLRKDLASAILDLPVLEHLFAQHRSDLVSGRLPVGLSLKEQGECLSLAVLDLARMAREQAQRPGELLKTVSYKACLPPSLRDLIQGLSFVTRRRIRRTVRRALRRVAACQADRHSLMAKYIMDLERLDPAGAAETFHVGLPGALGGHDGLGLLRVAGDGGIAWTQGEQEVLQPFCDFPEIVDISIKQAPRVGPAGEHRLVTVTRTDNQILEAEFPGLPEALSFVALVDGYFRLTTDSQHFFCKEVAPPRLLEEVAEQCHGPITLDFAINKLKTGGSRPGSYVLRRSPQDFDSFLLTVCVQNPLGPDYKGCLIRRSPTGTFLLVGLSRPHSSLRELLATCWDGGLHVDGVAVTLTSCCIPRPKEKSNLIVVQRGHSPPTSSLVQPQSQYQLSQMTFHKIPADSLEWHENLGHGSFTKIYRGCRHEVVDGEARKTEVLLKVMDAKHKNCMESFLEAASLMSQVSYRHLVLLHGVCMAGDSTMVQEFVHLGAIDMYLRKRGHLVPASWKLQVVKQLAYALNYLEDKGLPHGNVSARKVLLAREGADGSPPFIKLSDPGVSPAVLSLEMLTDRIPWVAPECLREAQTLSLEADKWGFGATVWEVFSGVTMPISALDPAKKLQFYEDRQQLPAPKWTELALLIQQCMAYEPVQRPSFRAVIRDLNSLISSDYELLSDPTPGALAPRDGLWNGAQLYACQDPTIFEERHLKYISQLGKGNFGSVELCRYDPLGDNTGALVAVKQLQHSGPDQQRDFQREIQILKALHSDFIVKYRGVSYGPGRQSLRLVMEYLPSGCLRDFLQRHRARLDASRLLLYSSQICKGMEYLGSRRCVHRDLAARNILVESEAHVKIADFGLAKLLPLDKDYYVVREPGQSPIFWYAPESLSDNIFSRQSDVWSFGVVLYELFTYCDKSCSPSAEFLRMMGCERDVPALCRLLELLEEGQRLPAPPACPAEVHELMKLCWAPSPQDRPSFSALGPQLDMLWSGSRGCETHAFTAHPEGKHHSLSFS
As to the kind of experiment: JAK biochemical assay (LANCE Ultra TR-FRET), JAK3. The following applies: recombinant JAK3, TR-FRET; read-out: Biochemical Assay (μM) JAK3. In short, it runs like this: as §1

The target in assay [5] is T4, Recombinant JAK1 (Homo sapiens, UniProt P23458).
T4 construct: purchased Carna Biosciences
As to the kind of experiment: JAK biochemical assay (LANCE Ultra TR-FRET), JAK1. The following applies: recombinant JAK1, TR-FRET; read-out: Biochemical Assay (μM) JAK1. Summed up:
as §1

Each structure is given as a SMILES string. Counter-ions that a name gives are not always drawn. Like-named read-outs stand apart in the source and are kept apart here.

T4 sequence (P23458 whole entry): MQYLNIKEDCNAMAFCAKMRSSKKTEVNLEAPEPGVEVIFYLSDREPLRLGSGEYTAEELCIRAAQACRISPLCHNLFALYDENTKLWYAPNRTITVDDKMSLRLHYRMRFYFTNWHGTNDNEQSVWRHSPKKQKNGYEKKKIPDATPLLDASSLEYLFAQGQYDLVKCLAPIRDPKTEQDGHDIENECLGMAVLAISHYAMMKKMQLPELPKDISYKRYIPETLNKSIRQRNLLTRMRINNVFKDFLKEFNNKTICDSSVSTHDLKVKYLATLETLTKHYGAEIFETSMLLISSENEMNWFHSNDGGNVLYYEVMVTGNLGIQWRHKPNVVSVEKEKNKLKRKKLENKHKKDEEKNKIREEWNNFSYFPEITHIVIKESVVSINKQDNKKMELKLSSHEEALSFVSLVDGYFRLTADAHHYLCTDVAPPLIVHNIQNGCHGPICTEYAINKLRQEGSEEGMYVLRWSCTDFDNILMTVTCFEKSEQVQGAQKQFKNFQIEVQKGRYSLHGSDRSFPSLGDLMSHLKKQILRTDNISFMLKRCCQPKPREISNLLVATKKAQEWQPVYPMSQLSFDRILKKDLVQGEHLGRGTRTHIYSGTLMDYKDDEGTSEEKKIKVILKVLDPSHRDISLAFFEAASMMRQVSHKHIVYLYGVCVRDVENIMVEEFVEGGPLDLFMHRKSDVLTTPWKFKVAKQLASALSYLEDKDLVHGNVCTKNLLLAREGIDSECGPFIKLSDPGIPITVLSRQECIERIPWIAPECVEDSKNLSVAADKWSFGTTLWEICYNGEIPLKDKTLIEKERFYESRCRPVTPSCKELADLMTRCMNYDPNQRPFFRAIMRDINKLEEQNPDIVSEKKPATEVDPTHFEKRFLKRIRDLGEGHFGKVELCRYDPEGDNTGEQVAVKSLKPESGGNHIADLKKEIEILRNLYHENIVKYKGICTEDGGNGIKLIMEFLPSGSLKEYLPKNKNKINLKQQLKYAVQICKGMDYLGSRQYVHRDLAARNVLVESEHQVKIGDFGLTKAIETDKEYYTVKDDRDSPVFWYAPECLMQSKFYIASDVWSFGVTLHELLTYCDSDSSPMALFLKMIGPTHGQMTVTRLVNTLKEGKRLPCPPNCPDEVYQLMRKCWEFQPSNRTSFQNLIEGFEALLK
T2 sequence (P29597 whole entry): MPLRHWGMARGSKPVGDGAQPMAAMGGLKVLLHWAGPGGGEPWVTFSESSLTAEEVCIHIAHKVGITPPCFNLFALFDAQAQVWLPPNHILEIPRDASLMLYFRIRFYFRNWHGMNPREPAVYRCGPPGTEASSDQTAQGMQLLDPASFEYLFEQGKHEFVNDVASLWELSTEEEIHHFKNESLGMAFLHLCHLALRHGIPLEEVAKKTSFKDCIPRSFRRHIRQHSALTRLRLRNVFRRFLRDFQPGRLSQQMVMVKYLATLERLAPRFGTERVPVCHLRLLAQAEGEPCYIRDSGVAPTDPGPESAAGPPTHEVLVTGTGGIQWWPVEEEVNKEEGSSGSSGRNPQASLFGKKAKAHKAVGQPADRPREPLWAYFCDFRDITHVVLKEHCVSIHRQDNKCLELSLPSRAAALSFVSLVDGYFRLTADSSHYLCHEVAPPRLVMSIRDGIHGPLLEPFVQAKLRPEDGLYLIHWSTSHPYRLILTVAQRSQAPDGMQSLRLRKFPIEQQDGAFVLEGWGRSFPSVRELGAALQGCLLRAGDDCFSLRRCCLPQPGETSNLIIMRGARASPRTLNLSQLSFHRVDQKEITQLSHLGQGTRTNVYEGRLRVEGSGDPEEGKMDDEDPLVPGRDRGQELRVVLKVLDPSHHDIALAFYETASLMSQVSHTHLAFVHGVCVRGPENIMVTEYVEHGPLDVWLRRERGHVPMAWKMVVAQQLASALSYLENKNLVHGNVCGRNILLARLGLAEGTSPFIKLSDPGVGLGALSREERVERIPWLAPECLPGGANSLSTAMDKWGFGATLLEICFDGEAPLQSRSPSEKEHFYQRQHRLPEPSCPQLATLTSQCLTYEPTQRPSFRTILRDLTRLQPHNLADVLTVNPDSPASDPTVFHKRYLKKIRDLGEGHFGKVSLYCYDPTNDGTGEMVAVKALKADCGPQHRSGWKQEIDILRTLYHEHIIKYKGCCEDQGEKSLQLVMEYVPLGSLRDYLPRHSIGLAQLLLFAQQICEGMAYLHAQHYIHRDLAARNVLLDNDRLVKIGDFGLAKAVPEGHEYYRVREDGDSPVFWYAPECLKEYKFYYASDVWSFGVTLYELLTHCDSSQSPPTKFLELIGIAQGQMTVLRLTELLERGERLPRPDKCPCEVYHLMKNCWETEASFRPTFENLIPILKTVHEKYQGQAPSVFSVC
T1 sequence (O60674 whole entry): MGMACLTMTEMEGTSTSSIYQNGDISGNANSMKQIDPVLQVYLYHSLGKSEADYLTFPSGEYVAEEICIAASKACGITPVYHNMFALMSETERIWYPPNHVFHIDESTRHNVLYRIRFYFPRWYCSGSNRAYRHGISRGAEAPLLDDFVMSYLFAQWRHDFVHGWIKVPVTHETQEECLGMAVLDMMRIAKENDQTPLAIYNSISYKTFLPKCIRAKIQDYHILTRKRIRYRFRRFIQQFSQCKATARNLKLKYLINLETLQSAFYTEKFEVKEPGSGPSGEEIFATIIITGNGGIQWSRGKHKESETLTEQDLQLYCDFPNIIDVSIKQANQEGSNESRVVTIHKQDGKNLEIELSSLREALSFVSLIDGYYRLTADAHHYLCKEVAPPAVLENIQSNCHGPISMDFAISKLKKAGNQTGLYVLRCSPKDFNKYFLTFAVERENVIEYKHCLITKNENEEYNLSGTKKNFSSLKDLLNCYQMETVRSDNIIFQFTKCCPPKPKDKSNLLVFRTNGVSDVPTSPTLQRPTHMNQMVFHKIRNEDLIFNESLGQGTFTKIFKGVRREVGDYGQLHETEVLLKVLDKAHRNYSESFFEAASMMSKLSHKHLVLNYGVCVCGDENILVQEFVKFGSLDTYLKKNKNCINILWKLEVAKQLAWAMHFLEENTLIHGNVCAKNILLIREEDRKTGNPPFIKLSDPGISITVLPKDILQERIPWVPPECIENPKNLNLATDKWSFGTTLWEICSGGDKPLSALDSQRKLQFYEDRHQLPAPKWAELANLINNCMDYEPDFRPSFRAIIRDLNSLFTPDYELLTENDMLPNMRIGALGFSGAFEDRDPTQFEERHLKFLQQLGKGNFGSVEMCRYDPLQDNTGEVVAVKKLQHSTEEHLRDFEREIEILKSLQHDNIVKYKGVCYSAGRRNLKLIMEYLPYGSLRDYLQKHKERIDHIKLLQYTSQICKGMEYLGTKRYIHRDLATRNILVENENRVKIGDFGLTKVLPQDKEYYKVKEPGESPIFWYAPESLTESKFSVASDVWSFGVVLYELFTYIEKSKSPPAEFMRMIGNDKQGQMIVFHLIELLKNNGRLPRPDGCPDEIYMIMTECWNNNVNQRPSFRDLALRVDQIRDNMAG

As for `N#CC1CCCCC1NC(=O)n1cc(-c2ccnc3[nH]cnc23)cn1` (stereo not drawn) [Example 1066, N-(2-cyanocyclohexyl)-4-(3H-imidazo[4,5-b]pyridin-7-yl)-1H-pyrazole-1-carboxamide], the IC50 in assay [1] is over 0.5 µM; in assay [2] (Homo sapiens, TF-1, TF-1 cells) it was over 10 µM; in assay [3], over 0.5 µM; in assay [4], over 0.5 µM.
On to `CC1(C)CN(C(=O)n2cc(-c3ccnc4[nH]c(=O)[nH]c34)cn2)C1` [Example 1037, 7-(1-(3,3-dimethylazetidine-1-carbonyl)-1H-pyrazol-4-yl)-1,3-dihydro-2H-imidazo[4,5-b]pyridin-2-one], for which the IC50 was over 1 µM in assay [1]; over 10 µM in assay [2] (Homo sapiens, TF-1, TF-1 cells); over 0.5 µM in assay [5]; over 0.5 µM in assay [3]; over 1 µM in assay [4].
As for `CC1(C)CN(C(=O)Nc2ccc(-c3ccnc4[nH]c(=O)[nH]c34)cc2)C1` [Example 1007, N-(4-(2,3-dihydro-2-oxo-1H-imidazo[4,5-b]pyridin-7-yl)phenyl)-3,3-dimethylazetidine-1-carboxamide], the IC50 in assay [1] was over 0.5 µM; in assay [2] (Homo sapiens, TF-1, TF-1 cells), over 10 µM; in assay [5] it was over 0.5 µM; in assay [3] it was over 1 µM; in assay [4], over 1 µM.
`N#CCc1ccc(-n2cc(-c3ccnc4[nH]cnc34)cn2)nc1` [Example 1082, 2-(6-(4-(3H-imidazo[4,5-b]pyridin-7-yl)-1H-pyrazol-1-yl)pyridin-3-yl)acetonitrile hydrochloride]: the IC50 in assay [1] is under 0.5 µM; in assay [2] (TF-1 cells, hydrochloride), over 1 µM; in assay [5], under 0.5 µM; in assay [4] it was under 0.5 µM.
On to `O=S(=O)(CCC(c1ccc(-n2cc(-c3ccnc4[nH]cnc34)cn2)nc1)C(F)(F)F)C1CC1` (stereo not drawn) [Example 1139, 7-(1-(5-(4-(cyclopropylsulfonyl)-1,1,1-trifluorobutan-2-yl)pyridin-2-yl)-1H-pyrazol-4-yl)-3H-imidazo[4,5-b]pyridine], for which the IC50 was over 0.5 µM in assay [1]; 1 µM in assay [2] (Homo sapiens, TF-1, TF-1 cells); over 0.5 µM in assay [5]; over 1 µM in assay [3]; over 0.1 µM in assay [4].
Consider `CC(C)NCC(c1ccc(-n2cc(-c3ccnc4[nH]cnc34)cn2)nc1)C(F)(F)F` (stereo not drawn) [Example 1218, 2-(6-(4-(3H-imidazo[4,5-b]pyridin-7-yl)-1H-pyrazol-1-yl)pyridin-3-yl)-3,3,3-trifluoro-N-isopropylpropan-1-amine], for which the IC50 in assay [2] (Homo sapiens, TF-1, TF-1 cells) was over 0.5 µM.
`COCCC(C#N)NC(=O)n1cc(-c2ccnc3[nH]cnc23)cn1` (stereo not drawn) [Example 1071, N-(1-cyano-3-methoxypropyl)-4-(3H-imidazo[4,5-b]pyridin-7-yl)-1H-pyrazole-1-carboxamide]: the IC50 in assay [1] was over 0.5 µM; in assay [2] (Homo sapiens, TF-1, TF-1 cells), over 10 µM; in assay [5], over 0.5 µM; in assay [3], over 0.5 µM; in assay [4], over 0.5 µM.
`O=C(NCC(F)(F)F)Nc1ccc(-c2ccnc3[nH]c(=O)[nH]c23)cc1` [Example 1003, 1-(2,2,2-trifluoroethyl)-3-(4-(2,3-dihydro-2-oxo-1H-imidazo[4,5-b]pyridin-7-yl)phenyl)urea]: the IC50 in assay [1] was 0.036 µM; in assay [2] (Homo sapiens, TF-1, TF-1 cells), over 10 µM; in assay [5], 0.021 µM; in assay [3] it was 0.182 µM; in assay [4] it was 0.175 µM.
Consider `N#CC(NC(=O)n1cc(-c2ccnc3[nH]c(=O)[nH]c23)cn1)C1CCCC1` (stereo not drawn) [Example 1038, N-(cyano(cyclopentyl)methyl)-4-(2,3-dihydro-2-oxo-1H-imidazo[4,5-b]pyridin-7-yl)-1H-pyrazole-1-carboxamide], for which the IC50 was over 0.5 µM in assay [1]; 10 µM in assay [2] (Homo sapiens, TF-1, TF-1 cells); over 0.5 µM in assay [5]; over 0.5 µM in assay [3]; over 0.5 µM in assay [4].
With `N#CCC(=O)N1CC(C(O)(c2ccc(-n3cc(-c4ccnc5[nH]cnc45)cn3)nc2)C(F)(F)F)C1` (stereo not drawn) [Example 1245, 3-(3-(1-(6-(4-(3H-imidazo[4,5-b]pyridin-7-yl)-1H-pyrazol-1-yl)pyridin-3-yl)-2,2,2-trifluoro-1-hydroxyethyl)azetidin-1-yl)-3-oxopropanenitrile], the IC50 is over 0.03 µM in assay [1]; over 1 µM in assay [2] (Homo sapiens, TF-1, TF-1 cells); over 0.001 µM in assay [5]; over 1 µM in assay [3]; over 0.003 µM in assay [4].
For `CC(C)NCC[C@H](c1ccc(-n2cc(-c3ccnc4[nH]cnc34)cn2)nc1)C(F)(F)F` [Example 1208, (R)-3-(6-(4-(3H-imidazo[4,5-b]pyridin-7-yl)-1H-pyrazol-1-yl)pyridin-3-yl)-4,4,4-trifluoro-N-isopropylbutan-1-amine], the IC50 in assay [1] was 0.01 µM; in assay [2] (Homo sapiens, TF-1, TF-1 cells), over 1 µM; in assay [3], over 0.5 µM; in assay [4] it was 0.005 µM.
In the case of `N#CCC(NC(=O)n1cc(-c2ccnc3[nH]c(=O)[nH]c23)cn1)C1CCCC1` (stereo not drawn) [Example 1039, N-(2-cyano-1-cyclopentylethyl)-4-(2,3-dihydro-2-oxo-1H-imidazo[4,5-b]pyridin-7-yl)-1H-pyrazole-1-carboxamide], the IC50 is under 0.5 µM in assay [1]; 10 µM in assay [2] (Homo sapiens, TF-1, TF-1 cells); under 0.5 µM in assay [5]; under 0.5 µM in assay [3].
`CS(=O)(=O)CCC(c1ccc(-n2cc(-c3ccnc4[nH]cnc34)cn2)nc1)C1COC1` (stereo not drawn) [Example 1160, 7-(1-(5-(3-(methylsulfonyl)-1-(oxetan-3-yl)propyl)pyridin-2-yl)-1H-pyrazol-4-yl)-3H-imidazo[4,5-b]pyridine]: the IC50 is over 0.5 µM in assay [1], over 0.1 µM in assay [5], over 1 µM in assay [3] and over 0.5 µM in assay [4].
Consider `O=C(NCC(F)(F)F)Nc1ccc(-c2ccnc3[nH]c(=O)[nH]c23)cn1` [Example 1005, 1-(2,2,2-trifluoroethyl)-3-(5-(2,3-dihydro-2-oxo-1H-imidazo[4,5-b]pyridin-7-yl)pyridin-2-yl)urea], for which the IC50 was over 10 µM in assay [2] (Homo sapiens, TF-1, TF-1 cells) and over 1 µM in assay [3].
As to `CCn1c(=O)[nH]c2nccc(-c3cnn(C(=O)NCC(F)(F)F)c3)c21` [Example 1042, 4-(1-ethyl-2,3-dihydro-2-oxo-1H-imidazo[4,5-b]pyridin-7-yl)-N-(2,2,2-trifluoroethyl)-1H-pyrazole-1-carboxamide], the IC50 in assay [1] is over 1 µM; in assay [5], over 10 µM; in assay [3], over 10 µM; in assay [4] it was over 10 µM.
As to `CS(=O)(=O)CCC(c1cccc(-n2cc(-c3ccnc4[nH]cnc34)cn2)n1)C(F)(F)F` (stereo not drawn) [Example 1175, 7-(1-(6-(1,1,1-trifluoro-4-(methylsulfonyl)butan-2-yl)pyridin-2-yl)-1H-pyrazol-4-yl)-3H-imidazo[4,5-b]pyridine], the IC50 in assay [1], in assay [5], in assay [3] and in assay [4] was over 1 µM each time.
